The text below walks through data of US11014920B2, “Factor XIIa inhibitors” (Merck Sharp & Dohme Corp., priority 2016, dated 2021).

The term IC50 denotes the concentration at which inhibition is half-maximal.

Chain of purified human Factor XIIa (P00748 373-615): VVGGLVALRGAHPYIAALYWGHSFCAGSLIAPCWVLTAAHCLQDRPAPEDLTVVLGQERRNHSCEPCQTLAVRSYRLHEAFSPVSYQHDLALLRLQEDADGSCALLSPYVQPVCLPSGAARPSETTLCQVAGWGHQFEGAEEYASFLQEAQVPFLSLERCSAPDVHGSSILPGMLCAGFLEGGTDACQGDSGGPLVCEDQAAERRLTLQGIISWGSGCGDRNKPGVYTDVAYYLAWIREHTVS
Chain of purified human Factor XIIa (P00748 20-372 partner): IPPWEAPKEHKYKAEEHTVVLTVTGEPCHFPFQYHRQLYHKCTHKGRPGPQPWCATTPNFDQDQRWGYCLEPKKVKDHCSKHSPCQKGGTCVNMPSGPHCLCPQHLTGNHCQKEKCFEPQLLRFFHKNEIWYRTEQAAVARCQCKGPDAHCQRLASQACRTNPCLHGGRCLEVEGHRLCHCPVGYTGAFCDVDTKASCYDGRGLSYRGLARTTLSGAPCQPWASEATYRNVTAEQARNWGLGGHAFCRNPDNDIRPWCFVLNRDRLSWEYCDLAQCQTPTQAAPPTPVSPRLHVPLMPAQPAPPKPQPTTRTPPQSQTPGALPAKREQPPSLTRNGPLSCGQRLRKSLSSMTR

The target in this assay is purified human Factor XIIa (Homo sapiens (Human), UniProt P00748). As to the kind of experiment: Factor XIIa assay. It is filed as biochemical. The settings on record: substrate n-Acetyl-Lys-Pro-Arg-AFC 100 μM, pH 7.4, read-out: FXIIa IC50. As to the method:
“FXIIa IC50(nm)” is Human Factor XIIa IC50 (nm).
The effectiveness of a compound of the present invention as an inhibitor of Coagulation Factor XIIa can be determined using a relevant purified serine protease, and an appropriate synthetic substrate. The rate of hydrolysis of the chromogenic or fluorogenic substrate by the relevant serine protease was measured both in the absence and presence of compounds of the present invention. Assays were conducted at room temperature or at 37° C. […] A decrease in the rate of fluorescence change in the presence of inhibitor is indicative of enzyme inhibition. Such methods are known to one skilled in the art. The results of this assay are expressed as the IC50, the inhibitor concentration causing a 50% decrease in Factor XIIa protease activity.
Factor XIIa activity determinations were made in 50 mM HEPES buffer containing 150 mM NaCl, 5 mM CaCl2, and 0.1% PEG 8000 (polyethylene glycol; JT Baker or Fisher Scientific) at pH 7.4. Determinations were made using purified human Factor XIIa at a final concentration of […] (Sekisui Diagnostics) and the synthetic substrate, n-Acetyl-Lys-Pro-Arg-AFC, TFA salt (Sigma # C6608) at a concentration of 100 μM.
Times required to achieve equilibration between enzyme and inhibitor were determined in control experiments. Initial velocities of product formation in the absence (Vo) or presence of inhibitor (Vi) were measured.
As for `O=C(NCc1cccs1)[C@H]1CN(C(=O)[C@@H](CCCCNCC(F)(F)F)NC2CCCCC2)CC[C@H]1NC(=O)N1CCC2(CC1)CC2` [Compound 22, N-{(3S,4R)-1-[N~2~- cyclohexyl-N~6~- (2,2,2-trifluoroethyl)-D-lysyl]-3-[(thiophen-2-ylmethyl)carbamoyl]pi-peridin-4-yl}-6-azaspiro[2.5]octane-6-carboxamide], the IC50 was 46.5 nM. Regarding `CS(=O)(=O)NCCCC[C@@H](NC1CCCCC1)C(=O)N1CC[C@@H](NC(=O)N2CCC3(CC2)CC3)[C@@H](C(=O)NCc2cccs2)C1` [Compound 23, N-{(3S,4R)-1-[N~2~- cyclohexyl-N~6~- (methylsulfonyl)-D-lysyl]-3-[(thiophen-2-ylmethyl)carbamoyl]pi-peridin-4-yl}-6-azaspiro[2.5]octane-6-carboxamide], the IC50 turned out to be 52.4 nM. Then `CN(C)CCCC[C@@H](NC1CCC2(CC1)CCN(Cc1ccccc1)C2)C(=O)N1CC[C@@H](NC(=O)N2CCC3(CC2)CC3)[C@@H](C(=O)NCc2cccs2)C1` (stereo partly drawn) [Compound 31, N-{(3S,4R)-1-[N~2~- (2-benzyl-2-azaspiro[4.5]dec-8-yl)-N~6~,N~6~-dimethyl-D-lysyl]-3-[(thiophen-2-ylmethyl)carbamoyl]pi-peridin-4-yl}-6-azaspiro[2.5]octane-6-carboxamide], with 1.5 nM. Turning to `NCCCC[C@@H](NC1CCCCC1)C(=O)N1CC[C@@H](NC(=O)N2CCC3(CC2)CC3)[C@@H](C(=O)NCc2ccccc2)C1` [Compound 13, N-[(3S,4R)-3-(benzylcarbamoyl)-1-(N~2~-cyclohexyl-D-lysyl)piperidin-4-yl]-6-azaspiro[2.5]octane-6-carboxamide], the IC50 came to 98.3 nM. As for `CN(C)CCCC[C@H](C(=O)N1CC[C@@H](NC(=O)c2ccc(F)cc2F)[C@@H](C(=O)NCc2cccs2)C1)N(C)C1CCCCC1` [Compound 7, (3S,4R)-1-(N~2~- cyclohexyl-N~2~,N~6~,N~6~- trimethyl-D-lysyl)-4-{[(2,4-difluoro-phenyl)carbonyl]amino}-N-(thiophen-2-ylmethyl)piperidine-3-carboxamide], the figure is 18.7 nM. Turning to `O=C(NCc1cccs1)[C@H]1CN(C(=O)[C@@H](CCCCN2CCCS2(=O)=O)NC2CCCCC2)CC[C@H]1NC(=O)N1CCC2(CC1)CC2` [Compound 17, N-{(3S,4R)-1-[N-cyclohexyl-6-(1,1-dioxidoisothiazolidin-2-yl)-D-norleucyl]-3-[(thiophen-2-ylmethyl)carbamoyl]pi-peridin-4-yl}-6-azaspiro[2.5]octane-6-carboxamide], the IC50 is 11.5 nM. Then `CN(C)CCCC[C@H](C(=O)N1CC[C@@H](NC(=O)c2ccc(F)cc2)[C@@H](C(=O)NCc2cccs2)C1)N(C)C1CCCCC1` [Compound 6, (3S,4R)-1-(N~2~- cyclohexyl-N~2~,N~6~,N~6~- trimethyl-D-lysyl)-4-{[(4-fluoro-phenyl)carbonyl]amino}-N-(thiophen-2-ylmethyl)piperidine-3-carboxamide], with 98.3 nM; and `CN(C)CCCC[C@@H](NC1CCCCC1)C(=O)N1CC[C@@H](NC(=O)N2CCC3(CC2)CC3)[C@@H](C(=O)NCc2cccs2)C1` [Compound 34, N-{(3S,4R)-1-(N~2~- cyclohexyl-N~6~,N~6~-dimethyl-D-lysyl)-3-[(thiophen-2-ylmethyl)carbamoyl]pi-peridin-4-yl}-6-azaspiro[2.5]octane-6-carboxamide], with 5.7 nM; and `O=C(NCc1cccs1)[C@H]1CN(C(=O)[C@@H](CCCCNS(=O)(=O)C2CC2)NC2CCCCC2)CC[C@H]1NC(=O)N1CCC2(CC1)CC2` [Compound 19, N-{(3S,4R)-1-[N~2~- cyclohexyl-N~6~- (cyclopropylsulfonyl)-D-lysyl]-3-[(thiophen-2-ylmethyl)carbamoyl]pi-peridin-4-yl}-6-azaspiro[2.5]octane-6-carboxamide], with 43.1 nM. As for `Cc1cnc(C(=O)N[C@@H]2CCN(C(=O)[C@@H](CC3CCCCC3)NC3CCCCC3)C[C@@H]2C(=O)NCc2ccc3[nH]cc(Cl)c3c2)s1` [Compound 1, (3S,4R)-N-[(3-chloro-1H-indol-5-yl)methyl]-1-(N,3-dicyclohexyl-D-alanyl)-4-{[(5-methyl-1,3-thiazol-2-yl)carbonyl]amino}pi-peridine-3-carboxamide], the figure is 49.2 nM; as for `CN(C)CCCC[C@H](C(=O)N1CC[C@@H](NC(=O)c2ccc(F)c(F)c2)[C@@H](C(=O)NCc2cccs2)C1)N(C)C1CCCCC1` [Compound 5, (3S,4R)-1-(N~2~- cyclohexyl-N~2~,N~6~,N~6~- trimethyl-D-lysyl)-4-{[(3,4-difluoro-phenyl)carbonyl]amino}-N-(thiophen-2-ylmethyl)piperidine-3-carboxamide], 71.6 nM. As to `CCS(=O)(=O)NCCCC[C@@H](NC1CCCCC1)C(=O)N1CC[C@@H](NC(=O)N2CCC3(CC2)CC3)[C@@H](C(=O)NCc2cccs2)C1` [Compound 21, N-{(3S,4R)-1-[N~2~- cyclohexyl-N~6~- (ethylsulfonyl)-D-lysyl]-3-[(thiophen-2-ylmethyl)carbamoyl]pi-peridin-4-yl}-6-azaspiro[2.5]octane-6-carboxamide], the IC50 is 51.2 nM.

Turning to `CN(C)CCCC[C@H](C(=O)N1CC[C@@H](NC(=O)c2ccc(Cl)cc2)[C@@H](C(=O)NCc2cccs2)C1)N(C)C1CCCCC1` [Compound 9, (3S,4R)-4-{[(4-chloro-phenyl)carbonyl]amino}-1-(N~2~- cyclohexyl-N~2~,N~6~,N~6~- trimethyl-D-lysyl)-N-(thiophen-2-ylmethyl)piperidine-3-carboxamide], the IC50 amounted to 11.5 nM. Regarding `Cc1cnc(C(=O)NC2CCN(C(=O)[C@@H](CC3CCCCC3)NC3CCCCC3)CC2C(=O)NCc2ccc(CN)cc2)s1` (stereo partly drawn) [Compound 2, N-[4-(aminomethyl)benzyl]-1-(N,3-dicyclohexyl-D-alanyl)-4-{[(5-methyl-1,3-thiazol-2-yl)carbonyl]amino}pi-peridine-3-carboxamide], the IC50 was 73.3 nM. Then `CN(CCCC[C@@H](NC1CCCCC1)C(=O)N1CC[C@@H](NC(=O)N2CCC3(CC2)CC3)[C@@H](C(=O)NCc2cccs2)C1)S(C)(=O)=O` [Compound 32, N-{(3S,4R)-1-[N~2~- cyclohexyl-N~6~- methyl-N~6~- (methylsulfonyl)-D-lysyl]-3-[(thiophen-2-ylmethyl)carbamoyl]pi-peridin-4-yl}-6-azaspiro[2.5]octane-6-carboxamide], with 22.5 nM; and `O=C(NCc1cccs1)[C@H]1CN(C(=O)[C@@H](CC2CCCCC2)NC2CCCCC2)CC[C@H]1NC(=O)N1CCCC2(CCNC2=O)C1` (stereo partly drawn) [Compound 36, N-((3S,4R)-1-((R)-3-cyclohexyl-2-(cyclohexylamino)pro-panoyl)-3-((thiophen-2-ylmethyl)carbamoyl)pi-peridin-4-yl)-1-oxo-2,7-diazaspiro[4.5]decane-7-carboxamide], with 428 nM. As for `CC(=O)NCCCC[C@@H](NC1CCCCC1)C(=O)N1CC[C@@H](NC(=O)N2CCC3(CC2)CC3)[C@@H](C(=O)NCc2cccs2)C1` [Compound 24, N-{(3S,4R)-1-(N~6~- acetyl-N~2~- cyclohexyl-D-lysyl)-3-[(thiophen-2-ylmethyl)carbamoyl]pi-peridin-4-yl}-6-azaspiro[2.5]octane-6-carboxamide], the figure is 108 nM; as for `CN(C)CCCC[C@H](C(=O)N1CC[C@@H](NC(=O)c2cc(F)c(F)cc2F)[C@@H](C(=O)NCc2cccs2)C1)N(C)C1CCCCC1` [Compound 10, (3S,4R)-1-(N~2~- cyclohexyl-N~2~,N~6~,N~6~- trimethyl-D-lysyl)-N-(thiophen-2-ylmethyl)-4-{[(2,4,5-trifluoro-phenyl)carbonyl]amino}pi-peridine-3-carboxamide], 29.2 nM; as for `Cc1cnc(C(=O)N[C@@H]2CCN(C(=O)[C@@H](CCCCN)NC3CCCCC3)C[C@@H]2C(=O)NCc2cccs2)s1` [Compound 3, (3S,4R)-1-(N~2~- cyclohexyl-D-lysyl)-4-{[(5-methyl-1,3-thiazol-2-yl)carbonyl]amino}-N-(thiophen-2-ylmethyl)piperidine-3-carboxamide], 109 nM. As for `Cc1csc(CNC(=O)[C@H]2CN(C(=O)[C@@H](CCCCN)NC3CCCCC3)CC[C@H]2NC(=O)N2CCC3(CC2)CC3)c1` [Compound 15, N-[(3S,4R)-1-(N~2~- cyclohexyl-D-lysyl)-3-{[(4-methylthiophen-2-yl)methyl]carbamoyl}pi-peridin-4-yl]-6-azaspiro[2.5]octane-6-carboxamide], the figure is 60.2 nM; as for `CS(=O)(=O)N(CCCC[C@@H](NC1CCCCC1)C(=O)N1CC[C@@H](NC(=O)N2CCC3(CC2)CC3)[C@@H](C(=O)NCc2cccs2)C1)CC(F)(F)F` [Compound 35, N-{(3S,4R)-1-[N~2~- cyclohexyl-N~6~- (methylsulfonyl)-N~6~- (2,2,2-trifluoroethyl)-D-lysyl]-3-[(thiophen-2-ylmethyl)carbamoyl]pi-peridin-4-yl}-6-azaspiro[2.5]octane-6-carboxamide], 19.5 nM.
